Values of other authors in patent US20240050950A1, “GRADIENT-BASED MICROFLUIDIC CIRCUIT, DEVICE, AND METHOD FOR PERFORMING AN ASSAY” (priority 2020, published 2024).
Where a name gives a salt, the structure may show the parent alone. Read-outs that look alike come from different tables or passages of the source. Numbered stars: 1 amine (or outer) side, 2 acyl side, 3 side chain; on linkers, the order of the positions; unused ones are H or OH. Bridge positions count the residues as written; N and C are the ends. Square brackets hold non-standard residues; d marks the D form. Peptide text beside a SMILES is read from it. X1 = CC(C)CCCCCCCCC[C@H](CC(=O)[*:1])O[*:2]

Details: cited from earlier work
[1] = Table 1, antimicrobial agents/drugs
[2] = Table 3, antifungal drugs and other molecules

SMILES | Molar volume [1] [cm^3] | further results
CO[C@@H]1[C@@H](OC(N)=O)[C@@H](O)[C@H](Oc2ccc3c(O)c(NC(=O)c4ccc(O)c(CC=C(C)C)c4)c(=O)oc3c2C)OC1(C)C [Novobiocin] | 430.9 ± 5.0 | 
C[C@@H]1[C@H](O)[C@@H](C)/C=C/C=C/CC/C=C/C=C/C=C/C=C/C(O[C@H]2O[C@H](C)[C@@H](O)[C@H](N)[C@@H]2O)CC2O[C@](O)(CC(O)C(O)CCC(O)CC(O)CC(O)CC(=O)O[C@H]1C)CC(O)C2C(=O)O (stereo partly shown) [Nystatin (Fungicidin, Mycostatin), Nystatin] | 696.1 ± 5.0 | 
C[C@@H]1Cc2c(Cl)cc(C(=O)N[C@@H](Cc3ccccc3)C(=O)O)c(O)c2C(=O)O1 [Ochratoxin A] | 283.2 ± 3.0 | 
Cc1c(C(=O)Nc2ccc(N3C[C@@H](C)O[C@@H](C)C3)nc2)cccc1-c1ccc(OC(F)(F)F)cc1 [Odomzo (Sonidegib), Sonidegib] |  | Molar volume (Table 2, anticancer drugs): 386.7 ± 3.0 cm^3
CC[C@@H]1/C=C/C=C/C[C@H](C)[C@H](O)[C@](C)(O)C(=O)[C@H](C)[C@@H](O)[C@H](C)C(=O)[C@H](C)[C@@H](O)[C@H](C)/C=C/C(=O)O[C@H]2[C@@H](C)[C@@H](CC1)O[C@@]1(CC[C@@H](C)[C@@H](C[C@H](C)O)O1)[C@@H]2C [Oligomycin A] | 688.2 ± 5.0 | Molar volume [2]: 688.2 ± 5.0 cm^3
COC(=O)C[C@](O)(CCCC(C)(C)O)C(=O)O[C@@H]1C(OC)=C[C@]23CCCN2CCc2cc4c(cc2[C@H]13)OCO4 [Omacetaxine Mepesuccinate] |  | Molar volume (Table 2, anticancer drugs): 408.4 ± 5.0 cm^3
C=CC(=O)Nc1cc(Nc2nccc(-c3cn(C)c4ccccc34)n2)c(OC)cc1N(C)CCN(C)C [Osimertinib (Tagrisso), Osimertinib] |  | Molar volume (Table 2, anticancer drugs): 418.4 ± 7.0 cm^3
Cc1onc(-c2ccccc2)c1C(=O)N[C@@H]1C(=O)N2[C@@H]1SC(C)(C)[C@@H]2C(=O)O [Oxacillin] | 268.4 ± 5.0 | 
CCn1cc(C(=O)O)c(=O)c2cc3c(cc21)OCO3 [Oxolinic acid] | 176.1 ± 3.0 | 
N=C1Sc2ccccc2C2=NCCCN12 [PD 404, 182, PD 404,182] | 150.9 ± 7.0 | 
COc1ccc(C[C@H](N)C(=O)N[C@H]2[C@@H](O)[C@H](n3cnc4c(N(C)C)ncnc43)O[C@@H]2CO)cc1 [PUROMYCIN] | 311.7 ± 7.0 | 
O=C1C=C2C(=CCOC2O)O1 (stereo not shown) [Patulin] | 101.3 ± 5.0 | 
N=C(N)c1ccc(OCCCCCOc2ccc(C(=N)N)cc2)cc1 [Pentamidine] | 281.4 ± 7.0 | 
c1ccc2nc3ccccc3nc2c1 [Phenazine] | 144.1 ± 3.0 | 
C[C@@H]1O[C@@H]1P(=O)(O)O [Phosphomycin (Fosfomycin), Phosphomycin] | 88.4 ± 5.0 | 
CCn1cc(C(=O)O)c(=O)c2cnc(N3CCNCC3)nc21 [Pipemidic acid] | 219.6 ± 3.0 | 
COc1cccc2c1C(=O)c1c(O)c3c(c(O)c1C2=O)C[C@@](O)(C(=O)CO)C[C@@H]3O[C@H]1C[C@H](N)[C@H](O[C@@H]2CCCCO2)[C@H](C)O1 [Pirarubicin (THP), Pirarubicin] | 413.3 ± 5.0 | 
Nc1cccc2c1C(=O)N(C1CCC(=O)NC1=O)C2=O (stereo not shown) [Pomalidomide] |  | Molar volume (Table 2, anticancer drugs): 173.9 ± 3.0 cm^3
O=C(C1CCCCC1)N1CC(=O)N2CCc3ccccc3C2C1 (stereo not shown) [Praziquantel] | 254.2 ± 5.0 | 
CCCc1cc(C(N)=S)ccn1 [Prothionamide] | 158.5 ± 3.0 | 
NC(=O)c1cnccn1 [Pyrazinecarboxamide] | 87.7 ± 7.0 | 
COc1ccc2nc3cc(Cl)ccc3c(Nc3cc(CN4CCCC4)c(O)c(CN4CCCC4)c3)c2n1 [Pyronaridine] | 381.8 ± 3.0 | 
O=[N+]([O-])c1c(Cl)cccc1-c1c[nH]cc1Cl [Pyrrolnitrin] | 168.7 ± 3.0 | 
C[C@@H]1C[C@H]2O[C@@H]2/C=C\C=C\C(=O)Cc2c(Cl)c(O)cc(O)c2C(=O)O1 [Radicicol] | 267.3 ± 3.0 | 
CNC(=O)c1cc(Oc2ccc(NC(=O)Nc3ccc(Cl)c(C(F)(F)F)c3)c(F)c2)ccn1 [Regorafenib] |  | Molar volume (Table 2, anticancer drugs): 323.6 ± 3.0 cm^3
NC(=O)c1ncn([C@@H]2O[C@H](CO)[C@@H](O)[C@H]2O)n1 [Ribavirin] | 117.0 ± 7.0 | 
NC[C@H]1O[C@H](O[C@H]2[C@H](O[C@@H]3O[C@H](CO)[C@@H](O)[C@H]3O)[C@@H](O)[C@H](N)C[C@@H]2N)[C@H](N)[C@@H](O)[C@@H]1O [Ribostamycin] | 283.6 ± 5.0 | 

SMILES | Molar volume [1] [cm^3] | further results
CO[C@H]1/C=C/O[C@@]2(C)Oc3c(C)c(O)c4c(c3C2=O)C2=NC3(CCN(CC(C)C)CC3)NC2=C(NC(=O)/C(C)=C\C=C\[C@H](C)[C@H](O)[C@@H](C)[C@@H](O)[C@@H](C)[C@H](OC(C)=O)[C@@H]1C)C4=O [Rifabutin] | 632.4 ± 7.0 | 
CO[C@H]1/C=C/O[C@@]2(C)Oc3c(C)c(O)c4c(O)c(c(/C=N/N5CCN(C6CCCC6)CC5)c(O)c4c3C2=O)NC(=O)/C(C)=C\C=C\[C@H](C)[C@H](O)[C@@H](C)[C@@H](O)[C@@H](C)[C@H](OC(C)=O)[C@@H]1C [Rifapentine (DL 473), Rifapentine] | 648.0 ± 7.0 | 
C[C@@H](OC[C@@]1(c2ccccc2)CC[C@]2(CCC(=O)N2)CN1)c1cc(C(F)(F)F)cc(C(F)(F)F)c1 [Rolapitant Hydrochloride] |  | Molar volume (Table 2, anticancer drugs): 373.3 ± 5.0 cm^3
CC[C@H]1OC(=O)[C@H](C)[C@@H](O[C@H]2C[C@@](C)(OC)[C@@H](O)[C@H](C)O2)[C@H](C)[C@@H](O[C@@H]2O[C@H](C)C[C@H](N(C)C)[C@H]2O)[C@](C)(O)C[C@@H](C)/C(=N\OCOCCOC)[C@H](C)[C@@H](O)[C@]1(C)O [Roxithromycin] | 666.3 ± 7.0 | 
N#CC[C@H](C1CCCC1)n1cc(-c2ncnc3[nH]ccc23)cn1 [Ruxolitinib phosphate] |  | Molar volume (Table 2, anticancer drugs): 218.6 ± 7.0 cm^3
CC[C@@H](C(=O)[C@@H](C)[C@@H](O)[C@H](C)[C@@H]1O[C@@H]([C@@H](CC)C(=O)O)CC[C@@H]1C)[C@H]1O[C@]2(C=C[C@@H](O)[C@]3(CC[C@@](C)([C@H]4CC[C@](O)(CC)[C@H](C)O4)O3)O2)[C@H](C)C[C@@H]1C [Salinomycin] | 633.5 ± 5.0 | 
C/C=C/C=C/C(=O)O [Sorbic acid] | 109.4 ± 3.0 | 
CO[C@H]1[C@@H](O)[C@H](O)[C@H](OC[C@@]23C[C@@H]4[C@H](C)CC[C@H]4[C@@]4(C=O)CC2C=C(C(C)C)[C@@]34C(=O)O)O[C@@H]1C [Sordarin] | 381.1 ± 5.0 | 
C[C@@H]1CN(c2c(F)c(N)c3c(=O)c(C(=O)O)cn(C4CC4)c3c2F)C[C@H](C)N1 [Sparfloxacin] | 273.2 ± 3.0 | 
CN[C@@H]1[C@H](O)[C@H](NC)[C@H]2O[C@@]3(O)C(=O)C[C@@H](C)O[C@H]3O[C@@H]2[C@H]1O [Spectinomycin] | 231.6 ± 5.0 | 
N=C(N)NCCCC[C@H](O)CC(=O)NC(O)C(=O)NCCCCNCCCN (stereo partly shown) [Spergualin] | 304.4 ± 7.0 | 
CN[C@@H]1C[C@H]2O[C@@](C)([C@@H]1OC)n1c3ccccc3c3c4c(c5c6ccccc6n2c5c31)C(=O)NC4 [Staurosporine (Staurosporine), Staurosporine] | 298.7 ± 7.0 | 
[H]/N=C(/N)N[C@H]1[C@H](O)[C@@H](O)[C@H](O[C@@H]2O[C@@H](C)[C@](O)(C=O)[C@H]2O[C@@H]2O[C@@H](CO)[C@H](O)[C@@H](O)[C@@H]2NC)[C@@H](N/C(N)=N\[H])[C@@H]1O [Streptomycin] | 293.4 ± 7.0 | 
COC1=C(N)C(=O)c2nc(-c3nc(C(=O)O)c(C)c(-c4ccc(OC)c(OC)c4O)c3N)ccc2C1=O [Streptonigrin (Bruneomycin, Nigrin), Streptonigrin] | 322.2 ± 5.0 | 
CC(C)CCCCCCCCC[C@@H]1CC(=O)N[C@@H](CCC(=O)O)C(=O)N[C@@H](CC(C)C)C(=O)N[C@H](CC(C)C)C(=O)N[C@@H](C(C)C)C(=O)N[C@@H](CC(=O)O)C(=O)N[C@H](CC(C)C)C(=O)N[C@@H](CC(C)C)C(=O)O1 [Surfactin] (EL[dL]VD[dL]L; linker N-C via X1) |  | Molar volume [2]: 998.6 ± 3.0 cm^3
Nc1nc2nc[nH]c2c(=S)[nH]1 [Tabloid (Thioguanine), Thioguanine] |  | Molar volume (Table 2, anticancer drugs): 96.4 ± 3.0 cm^3
CO[C@H]1C[C@@H]2CC[C@@H](C)[C@@](O)(O2)C(=O)C(=O)N2CCCC[C@H]2C(=O)O[C@H]([C@H](C)C[C@@H]2CC[C@@H](OC(=O)C(C)(CO)CO)[C@H](OC)C2)CC(=O)[C@H](C)/C=C(\C)[C@@H](O)[C@@H](OC)C(=O)[C@H](C)C[C@H](C)/C=C/C=C/C=C/1C [Temsirolimus (Torisel), Temsirolimus] |  | Molar volume (Table 2, anticancer drugs): 853.1 ± 5.0 cm^3
CN(C/C=C/C#CC(C)(C)C)Cc1cccc2ccccc12 [Terbinafine] |  | Molar volume [2]: 289.1 cm^3
CC(C)N1CCN(c2ccc(OCC3COC(Cn4cncn4)(c4ccc(Cl)cc4Cl)O3)cc2)CC1 (stereo not shown) [Terconazole] |  | Molar volume [2]: 391.5 ± 7.0 cm^3
O=C1CCC(N2C(=O)c3ccccc3C2=O)C(=O)N1 (stereo not shown) [Thalidomide] |  | Molar volume (Table 2, anticancer drugs): 171.7 ± 3.0 cm^3
Cc1ccc(C(C)C)c(O)c1 [Thymol (5-Methyl-2-isopropylphenol), 5-Methyl-2-isopropylphenol] |  | Molar volume [2]: 150.2 cm^3
Clc1ccc(C(Cn2ccnc2)OCc2ccsc2Cl)c(Cl)c1 (stereo not shown) [Tioconazole] |  | Molar volume [2]: 269.0 ± 7.0 cm^3
Cc1cccc(N(C)C(=S)Oc2ccc3ccccc3c2)c1 [Tolnaftate] |  | Molar volume [2]: 251.1 ± 3.0 cm^3
COc1cc2c(cc1O)CCN[C@]21CS[C@@H]2c3c(OC(C)=O)c(C)c4c(c3[C@H](COC1=O)N1[C@@H]2[C@H]2c3c(cc(C)c(OC)c3O)C[C@@H]([C@@H]1O)N2C)OCO4 [Trabectedin (Yondelis), Trabectedin] |  | Molar volume (Table 2, anticancer drugs): 489.2 ± 5.0 cm^3
Nc1ncnc2c1ccn2[C@@H]1O[C@H](CO)[C@@H](O)[C@H]1O [Tubercidin] |  | Molar volume [2]: 139.5 ± 7.0 cm^3
CC(=O)OC[C@H]1O[C@@H](n2ccc(=O)[nH]c2=O)[C@H](OC(C)=O)[C@@H]1OC(C)=O [Uridine Triacetate (Vistogard), Uridine Triacetate] |  | Molar volume (Table 2, anticancer drugs): 257.5 ± 5.0 cm^3
CCCCC(=O)OCC(=O)[C@]1(O)Cc2c(O)c3c(c(O)c2[C@@H](O[C@H]2C[C@H](NC(=O)C(F)(F)F)[C@H](O)[C@H](C)O2)C1)C(=O)c1c(OC)cccc1C3=O [Valrubicin] |  | Molar volume (Table 2, anticancer drugs): 469.8 ± 5.0 cm^3
